Reference: patent publication US20250198902A1, “METHOD OF ANALYSING THE MOTIONAL ACTIVITY OF PARTICLES” (RESISTELL AG, priority 2022, published 2025)

System: human colon cancer cell line SW480
Assay: nanomotion drug sensitivity testing on cancer cells attached to microcantilever
Assay type: cell-based
Conditions: SW480 cells in DMEM containing 10% FCS; 32 μM doxorubicin in Drug phase vs second Medium phase
Method: In particular, these figures show the variance of the deflection of a microcantilever with attached human colon cancer cell line SW480 measured in cell culture medium and subsequent exposure to inhibitory concentrations of the drug doxorubicin (FIG. 25a) and the variance for cells kept in cell culture medium (FIG. 25b). The doxorubicin susceptible SW480 was cultured under standard laboratory conditions (i.e., cell culture medium (Dulbecco's Modified Eagle Medium (DMEM) containing 10% heat-inactivated fetal calf serum (FCS), 37° C., 5% CO2) in cell culture flasks. In preparation of nanomotion experiments, cells were detached, collected in cell culture medium, and washed in DMEM containing 10% FCS. The cell suspension was used for the attachment to the cantilever, and all nanomotion measurements with the device were performed in DMEM containing 10% FCS. The colon cancer cells were attached to the cantilever. Three phases of signal recording were performed: (i) Blank phase, where the deflections of the bare cantilevers are measured, (ii) the Medium phase, where the deflections of the cantilever with attached SW480 were measured followed by (iii) the Drug phase, where the deflections of the cantilever with attached SW480 after exposure to a drug were recorded or a second Medium phase without doxorubicin. […]

COc1cccc2c1C(=O)c1c(O)c3c(c(O)c1C2=O)C[C@@](O)(C(=O)CO)C[C@@H]3O[C@H]1C[C@H](N)[C@H](O)[C@H](C)O1 [doxorubicin]
variance of the nanomotion signal (cantilever deflection) after drug exposure: decrease in the variance after exposure to the drug is prominent
